Assay results: US20170232083A1, “METHODS OF DIAGNOSIS AND TREATMENT OF CELIAC DISEASE IN CHILDREN” (priority 2014, published 2017)
“And” between values parts separate entries of the source, which are not always exact repeats. Identical values can stand only once. Non-standard residues stand in square brackets, D forms with d. pGlu = O=C1CC[C@@H](C(=O)O)N1

Test system: peripheral blood mononuclear cells obtained from children
Assay: IFNγ ELISpot PBMC assay after oral wheat bread challenge (Examples 1-2)
Assay type: cell-based, human
Description: An oral wheat bread challenge was conducted in DQ2.5+ children and adolescents having Celiac disease. The age ranges were 3-5, 6-10 and 11-18 years of age. An ELISpot peripheral blood mononucleated cell (PBMC) assay was performed to measure the level of IFNγ released by the PBMCs after being contacted with peptide 1, peptide 2, peptide 3, or a combination thereof. The identities of peptides 1, 2, and 3 are shown below.
The values the rows starting from “Blank (SFU)” and ending at “Pept-1/2/3 (150)” are all spot forming unit (SFU) values. The values in the parentheses in the first column are the concentration of each peptide in micrograms that were added to the PBMCs (e.g., Pept-1 50=50 micrograms of Peptide 1, Pept-1/2/3 50=50 micrograms of each of Peptide 1, Peptide 2, and Peptide 3). Pept-1=Peptide 1, Pept-2=Peptide 2, Pept-3=Peptide 3, the amino acid identities of which are mentioned above. D-Gli=deamidated gliadin. WT-Gli=wild-type gliadin. D-Glut=deamidated gluten. WT-Glut=wild-type gluten.
IFNγ ELISpot responses in 9 older children (11-17 yo) and 6 younger children (3-10 yo) were stimulated by the mixture of peptides 1, 2, and 3 described in Example 1 (each peptide at a concentration of 25 ug/mL) or stimulated by deamidated gliadin (100 ug/mL) after 3-day wheat challenge (r2=0.8, p<0.0001). The ELISpot responses were similar using either the peptide mixture of the deamidated gliadin (FIG. 1).

For “EPEQPIPEQPQPYPQQ ([pGlu]PEQPIPEQPQPYPQQ-NH2; SMILES CC[C@H](C)[C@H](NC(=O)[C@@H]1CCCN1C(=O)[C@H](CCC(N)=O)NC(=O)[C@H](CCC(=O)O)NC(=O)[C@@H]1CCCN1C(=O)[C@@H]1CCC(=O)N1)C(=O)N1CCC[C@H]1C(=O)N[C@@H](CCC(=O)O)C(=O)N[C@@H](CCC(N)=O)C(=O)N1CCC[C@H]1C(=O)N[C@@H](CCC(N)=O)C(=O)N1CCC[C@H]1C(=O)N[C@@H](Cc1ccc(O)cc1)C(=O)N1CCC[C@H]1C(=O)N[C@@H](CCC(N)=O)C(=O)N[C@@H](CCC(N)=O)C(N)=O) [Peptide 3]”, the “SFU, IFNγ ELISpot” value (Subject A, 5.0 × 10^5 cells per well, 50 micrograms) was 0 SFU, the “SFU, IFNγ ELISpot” value (Subject C, 5.0 × 10^5 cells per well, 50 micrograms) was 3 SFU and the “SFU, IFNγ ELISpot” value (Subject D, 4.0 × 10^5 cells per well, 25 micrograms, listed as Pept-3) was 2 SFU and 4 SFU. The “SFU, IFNγ ELISpot” value (Subject D, 4.0 × 10^5 cells per well, 50 micrograms) was 2 SFU, the “SFU, IFNγ ELISpot” value (Subject D, 4.0 × 10^5 cells per well, 100 micrograms, listed as Pept-3) was 2 SFU and 4 SFU and the “SFU, IFNγ ELISpot” value (Subject E, 5.0 × 10^5 cells per well, 25 micrograms) was 3 SFU. For the same sequence, the “SFU, IFNγ ELISpot” value (Subject E, 5.0 × 10^5 cells per well, 50 micrograms) was 6 SFU, the “SFU, IFNγ ELISpot” value (Subject E, 5.0 × 10^5 cells per well, 100 micrograms, listed as Pept-3) was 3 SFU and 4 SFU and the “SFU, IFNγ ELISpot” value (Subject G, 4.0 × 10^5 cells per well, 25 micrograms) was 0 SFU. For the same sequence, the “SFU, IFNγ ELISpot” value (Subject H, 3.5 × 10^5 cells per well, 25 micrograms, listed as Pept-3) was 1 SFU and 2 SFU, the “SFU, IFNγ ELISpot” value (Subject H, 3.5 × 10^5 cells per well, 50 micrograms, listed as Pept-3) was 2 SFU and 4 SFU and the “SFU, IFNγ ELISpot” value (Subject I, 5.0 × 10^5 cells per well, 50 micrograms) was 1 SFU. The “SFU, IFNγ ELISpot” value (Subject J, 5.0 × 10^5 cells per well, 25 micrograms, listed as Pept-3) was 4 SFU and 2 SFU, the “SFU, IFNγ ELISpot” value (Subject J, 5.0 × 10^5 cells per well, 50 micrograms, listed as Pept-3) was 2 SFU and 3 SFU and the “SFU, IFNγ ELISpot” value (Subject J, 5.0 × 10^5 cells per well, 100 micrograms, listed as Pept-3) was 1 SFU and 2 SFU. For the same sequence, the “SFU, IFNγ ELISpot” value (Subject K, 3.2 × 10^5 cells per well, 25 micrograms, listed as Pept-3) was 2 SFU and 3 SFU, the “SFU, IFNγ ELISpot” value (Subject K, 3.2 × 10^5 cells per well, 50 micrograms, listed as Pept-3) was 2 SFU and 1 SFU and the “SFU, IFNγ ELISpot” value (Subject L, 3.5 × 10^5 cells per well, 25 micrograms) was 1 SFU. For the same sequence, the “SFU, IFNγ ELISpot” value (Subject M, 2.3 × 10^5 cells per well, 25 micrograms) was 0 SFU, the “SFU, IFNγ ELISpot” value (Subject M, 2.3 × 10^5 cells per well, 100 micrograms) was 0 SFU and the “SFU, IFNγ ELISpot” value (Subject N, 2.4 × 10^5 cells per well, 50 micrograms, listed as Pept-3) was 2 SFU and 1 SFU. The “SFU, IFNγ ELISpot” value (Subject N, 2.4 × 10^5 cells per well, 100 micrograms) was 0 SFU, the “SFU, IFNγ ELISpot” value (Subject P, 3.0 × 10^5 cells per well, 50 micrograms, listed as Pept-3) was 8 SFU and 6 SFU and the “SFU, IFNγ ELISpot” value (Subject Q, 3.0 × 10^5 cells per well, 50 micrograms, listed as Pept-3) was 1 SFU and 2 SFU. The “SFU, IFNγ ELISpot” value (Subject R, 3.0 × 10^5 cells per well, 50 micrograms, listed as Pept-3) was 12 SFU and 9 SFU, the “SFU, IFNγ ELISpot” value (Subject W, 3.0 × 10^5 cells per well, 50 micrograms) was 8 SFU and the “SFU, IFNγ ELISpot” value (Subject Y, 2.29 × 10^5 cells per well, 50 micrograms) was 3 SFU. The “T cell response in PBMC samples from children after gluten challenge” value (general increase in SFU in each child, Tables 2-5) was “induce a T cell response”.
